Source: PMC5318439, “The Novel Toll-Like Receptor 2 Agonist SUP3 Enhances Antigen Presentation and T Cell Activation by Dendritic Cells” (Frontiers in Immunology, 2017)
Where a SMILES comes first, the peptide text is derived from it. The star is where a group is joined. X1 = CCCCCCCCCCCCCCNC(=O)OC[C@H](C*)OC(=O)NCCCCCCCCCCCCCC; Palmitoyl = CCCCCCCCCCCCCCCC(=O)*

Key:
splenic CD11b^+ cDCs = test: CD86 expression on splenic CD11b+ cDCs after i.v. administration; assay type: in vivo, mice; details: 2 nmol per mouse i.v., 1 h
Description: Figure 5 SUP3 enhanced antigen presentation ability of CD11b^+ conventional dendritic cells (cDCs) and production of antibodies against thymus-dependent (TD) antigens. (A) Mice were immunized by TD antigen nitrophenyl-keyhole limpet hemocyanin (NP-KLH) (5 µg per mouse) with or without SUP3 (2 nmol per mouse), Pam3 (2 nmol per mouse), or alum (3 µg per mouse) as adjuvants, respectively. Serum IgM (nitrophenyl 30mer-captured, NP30-captured), total IgG (NP30-captured), and high affinity IgG (nitrophenyl 8mer-captured, NP8-captured) specific to NP at indicated time points were examined by ELISA. […] Three days after immunization, division of OT-II CD4^+ T cells from inguinal lymph nodes were analyzed by flow cytometry (B). Absolute numbers of proliferated OT-II CD4^+ T cells were calculated in (C). […] Cells were then thoroughly washed and cocultured with CFSE-stained OT-II CD4^+ T cells for 4 days and analyzed by flow cytometry. (D) The division of OT-II cells was measured by reduced level of CFSE-labeling. (E) Absolute numbers of proliferated T cells from (D) were calculated. (F) SUP3 (2 nmol per mouse), Pam3 (2 nmol per mouse), or PBS were i.v. injected into mice for 1 h, and splenic CD11b^+ cDCs were enriched and analyzed for CD86 expression by flow cytometry. […] The cytokines from supernatant were determined by ELISA (*p < 0.05, **p < 0.01). […]

CD11b^+ cDCs = test: Cytokine production by purified CD11b+ cDCs (ELISA); assay type: cell-based, mice; details: 200 nM, GM-CSF 20 ng/mL, 24 h, compared with CpG 20 nM
Description: Splenic DCs (5 × 10^5 cells/mL) were stimulated by Pam3 (200 nM), SUP3 (200 nM), or CpG ODN 1668 (20 nM; Adipogen IAX-200-001) in the GM-CSF (20 ng/mL) supplemented medium for indicated periods. Cell culture supernatants were harvested at indicated time points and stored at −40°C. RAW 264.7 cells and GMDCs were stimulated by lipopolysaccharide (LPS) (20 ng/mL; Adipogen IAX-100-013), Pam3, or SUP3 (both at 200 nM) for 24 h. For in vivo administration, Pam3 (2 nmol per mouse), SUP3 (2 nmol per mouse), or LPS (1 µg per mouse) were intravenously (i.v.) injected via tail veins. Serum was obtained through tail vein bleeding and centrifuged after coagulation and stored at −40°C. Cytokines (IL-6, eBioscience 88-7064; TNFα, eBioscience 88-7324; IL-12p40, BioLegend 431604), chemokine (MIP1α, R&D Systems DY450-05), and total IgM (eBioscience, 88-50470) were quantified by ELISA kits following the instructions of manufacturers.
Figure 5 SUP3 enhanced antigen presentation ability of CD11b^+ conventional dendritic cells (cDCs) and production of antibodies against thymus-dependent (TD) antigens. […] Three days after immunization, division of OT-II CD4^+ T cells from inguinal lymph nodes were analyzed by flow cytometry (B). Absolute numbers of proliferated OT-II CD4^+ T cells were calculated in (C). […] (D) The division of OT-II cells was measured by reduced level of CFSE-labeling. […]

Compound	CD86 on splenic CD11b+ cDC in vivo (splenic CD11b^+ cDCs)	IL-6, TNFα, and MIP1α production by CD11b+ cDCs (CD11b^+ cDCs)
CCCCCCCCCCCCCCCC(=O)N[C@@H](CSC[C@@H](COC(=O)NCCCCCCCCCCCCCC)OC(=O)NCCCCCCCCCCCCCC)C(=O)NCC(=O)N[C@@H](CCCCN)C(=O)N[C@@H](CCCCN)C(=O)N[C@@H](CCCCN)C(=O)O [SUP3, (2S,5S,8S,14R,18R)-2,5,8-tris(4-aminobutyl)-4,7,10,13,21-pentaoxo-14-palmitamido-18-((tetradecylcarbamoyl)oxy)-20-oxa-16-thia-3,6,9,12,22-pentaazahexatriacontan-1-oic acid] (Palmitoyl-C(X1)GKKK-OH)	CD86 upregulation	lower level
Pam3CSK4 [reference compound]	CD86 upregulation	lower level
